Measurements reported in patent US9290454B2, “Substituted isoquinolines as CRTH2 receptor modulators” (Merck Sharp & Dohme Corp., priority 2012, dated 2016).
pKi: −log10 of the molar value.

These molecules were tested against hCRTH2 (Homo sapiens (Human), UniProt Q9Y5Y4) (assay: Radioligand binding assay ([3H]-PGD2, SPA or filtration)). Settings: [3H]-PGD2 competition, membrane protein from HEK-hCRTH2 cell line, room temperature, SPA or filtration format.
Chain of hCRTH2 (Q9Y5Y4 whole entry): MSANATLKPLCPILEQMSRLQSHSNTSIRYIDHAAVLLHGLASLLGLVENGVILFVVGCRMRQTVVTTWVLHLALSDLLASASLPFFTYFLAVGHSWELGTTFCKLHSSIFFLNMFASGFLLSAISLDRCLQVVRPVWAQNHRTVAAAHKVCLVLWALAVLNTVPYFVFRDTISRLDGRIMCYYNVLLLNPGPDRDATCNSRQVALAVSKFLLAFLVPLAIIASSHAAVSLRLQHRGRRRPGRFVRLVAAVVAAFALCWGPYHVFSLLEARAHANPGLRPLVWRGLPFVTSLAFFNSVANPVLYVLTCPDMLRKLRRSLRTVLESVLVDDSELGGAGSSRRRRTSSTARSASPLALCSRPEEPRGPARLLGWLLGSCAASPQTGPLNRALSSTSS
Procedure: Radioligand binding was performed using filtration or scintillation proximity assay (SPA) technology. SPA assays were done at room temperature in 10 mM HEPES pH 7.4, 1 mM EDTA containing 2 mM MnCl2 and 16 nM [^3H]-PGD2 (PerkinElmer, Waltham, Mass.) (164 Ci mmol-1), in a final volume of 0.05 mL. Competing ligands were diluted in dimethylsulfoxide and added using very low volumes (500 nL). The reaction was initiated by the addition of a mixture of 3.52 ug of membrane protein prepared from a human embryonic kidney (HEK)-hCRTH2 cell line adhered to 140 ug of wheatgerm agglutinin SPA beads (PerkinElmer). Total and non-specific binding were determined in the absence and the presence of a CRTH2 antagonist, respectively. The reaction was routinely conducted for 60 minutes at room temperature followed by centrifugation for 5 minutes at 1000 RPM. The radioactivity was measured with a TopCountNXT (PerkinElmer). Filtration binding assays were done in a similar way with minor differences. The assay volume was 0.20 mL and competing ligands in dimethylsulfoxide were added in 2 uL. [^3H]-PGD2 was used at 0.6 nM, and reactions were initiated by the addition of 10 ug of membrane protein. Reactions were terminated by filtration through GF/C filter plates (PerkinElmer) presoaked in 10 mM HEPES. After washing with buffer, plates were dried in a 50° C. oven for 1 h, scintillation cocktail was added and radioactivity was measured. Results determined using the SPA-based assay were similar to those from the filtration binding assay. Table A (below) sets forth the results of the binding assay for representative compounds of the invention.
`C[C@@H]1CN(c2ccccc2)CCN1C(=O)c1ccc2c(=O)n(-c3ccc(F)cc3)c(CCCCC(=O)NS(=O)(=O)C3CC3)cc2c1` [Example 8.4, (R)-N-(cyclopropylsulfonyl)-5-(2-(4-fluorophenyl)-6-(2-methyl-4-phenylpiperazine-1-carbonyl)-1-oxo-1,2-dihydroisoquinolin-3-yl)pentanamide] was tested, and the pKi was 7.43.
For `C[C@@H](NC(=O)c1ccc2c(=O)n(Cc3ccc(F)cc3)c(CCCCC(=O)O)cc2c1)c1ccc(F)cc1` [Example 1.2, (R)-5-(2-(4-fluorobenzyl)-6-((1-(4-fluorophenyl)ethyl)carbamoyl)-1-oxo-1,2-dihydroisoquinolin-3-yl)pentanoic acid], the pKi was 7.31.
`C[C@@H](NC(=O)c1ccc2c(=O)n(-c3ccc(F)cc3)c(CCCCC(=O)O)cc2c1)c1ccc(F)cc1` [Example 4.4, (R)-5-(2-(4-fluorophenyl)-6-((1-(4-fluorophenyl)ethyl)carbamoyl)-1-oxo-1,2-dihydroisoquinolin-3-yl)pentanoic acid] showed a pKi of 8.29.
For `O=C(O)CCCCc1cc2cc(C(=O)N[C@@H]3CCCc4ccccc43)ccc2c(=O)n1-c1ccc(F)cc1` [Example 3.1, (R)-5-(2-(4-fluorophenyl)-1-oxo-6-((1,2,3,4-tetrahydronaphthalen-1-yl)carbamoyl)-1,2-dihydroisoquinolin-3-yl)pentanoic acid], the pKi was 8.24.
`O=C(CCCCc1cc2cc(-c3noc(Cc4ccc(F)cc4)n3)ccc2c(=O)n1-c1ccc(F)cc1)NS(=O)(=O)C1CC1` [Example 8.6, N-(cyclopropylsulfonyl)-5-(6-(5-(4-fluorobenzyl)-1,2,4-oxadiazol-3-yl)-2-(4-fluorophenyl)-1-oxo-1,2-dihydroisoquinolin-3-yl)pentanamide] showed a pKi of 7.76.
Molecule `C[C@@H]1CN(c2ccc(F)cc2)CCN1C(=O)c1ccc2c(=O)n(-c3ccc(F)cc3)c(CCCCC(=O)O)cc2c1` [Example 4.1, (R)-5-(2-(4-fluorophenyl)-6-(4-(4-fluorophenyl)-2-methylpiperazine-1-carbonyl)-1-oxo-1,2-dihydroisoquinolin-3-yl)pentanoic acid] has a pKi of 7.65.
With `O=C(O)CCCCc1cc2cc(C(=O)NC3CC(=O)Nc4ccccc43)ccc2c(=O)n1-c1ccc(F)cc1` (stereo not shown) [Example 4.3, 5-(2-(4-fluorophenyl)-1-oxo-6-((2-oxo-1,2,3,4-tetrahydroquinolin-4-yl)carbamoyl)-1,2-dihydroisoquinolin-3-yl)pentanoic acid] the pKi was 7.68.
For `C[C@@H](NC(=O)c1ccc2c(=O)n(-c3ccc(C#N)cc3)c(CCCCC(=O)O)cc2c1)c1ccc(F)cc1` [Example 3.4, (R)-5-(2-(4-cyanophenyl)-6-((1-(4-fluorophenyl)ethyl)carbamoyl)-1-oxo-1,2-dihydroisoquinolin-3-yl)pentanoic acid], the pKi was 8.05.
For `C[C@@H](NC(=O)c1ccc2c(=O)n(-c3ccc(F)cc3)c(CC(=O)O)cc2c1)c1ccc(F)cc1` [Example 2.1, (R)-2-(2-(4-fluorophenyl)-6-((1-(4-fluorophenyl)ethyl)carbamoyl)-1-oxo-1,2-dihydroisoquinolin-3-yl)acetic acid], the pKi was 5.31.
`O=C(CCCCc1cc2cc(-c3cc(Cc4ccc(F)cc4)on3)ccc2c(=O)n1-c1ccc(F)cc1)NS(=O)(=O)C1CC1` [Example 8.5, N-(cyclopropylsulfonyl)-5-(6-(5-(4-fluorobenzyl)isoxazol-3-yl)-2-(4-fluorophenyl)-1-oxo-1,2-dihydroisoquinolin-3-yl)pentanamide] showed a pKi of 7.77.
`COc1cccc(-n2c(CCCCC(=O)O)cc3cc(C(=O)N[C@H](C)c4ccc(F)cc4)ccc3c2=O)c1` [Example 3.5, (R)-5-(6-((1-(4-fluorophenyl)ethyl)carbamoyl)-2-(3-methoxyphenyl)-1-oxo-1,2-dihydroisoquinolin-3-yl)pentanoic acid] showed a pKi of 7.88.
In the case of `O=C(O)CCCCc1cc2cc(C(=O)N[C@@H]3CCCc4cc(F)ccc43)ccc2c(=O)n1-c1ccc(F)cc1` [Example 3.2, (R)-5-(6-((6-fluoro-1,2,3,4-tetrahydronaphthalen-1-yl)carbamoyl)-2-(4-fluorophenyl)-1-oxo-1,2-dihydroisoquinolin-3-yl) pentanoic acid], the pKi was 8.19.
Work on `C[C@@H](NC(=O)c1ccc2c(=O)n(Cc3ccccc3)c(CCCCC(=O)O)cc2c1)c1ccc(F)cc1` [Example 1.1, (R)-5-(2-benzyl-6-((1-(4-fluorophenyl)ethyl)carbamoyl)-1-oxo-1,2-dihydroisoquinolin-3-yl)pentanoic acid] yielded a pKi of 7.42.
`COc1ccccc1-n1c(CCCCC(=O)O)cc2cc(C(=O)N[C@H](C)c3ccc(F)cc3)ccc2c1=O` (single isomer, unassigned) [Example 3.6] gave a pKi of 6.44.
`C[C@@H]1CN(c2ccccc2)CCN1C(=O)c1ccc2c(=O)n(-c3ccc(F)cc3)c(CCCCC(=O)O)cc2c1` [Example 4.2, (R)-5-(2-(4-fluorophenyl)-6-(2-methyl-4-phenylpiperazine-1-carbonyl)-1-oxo-1,2-dihydro-isoquinolin-3-yl)pentanoic acid] gave a pKi of 7.87.
With `CC(c1ccc(F)cc1)c1nc(-c2ccc3c(=O)n(-c4ccc(F)cc4)c(CCCCC(=O)O)cc3c2)no1` (stereo not shown) [Example 7.3, 5-(2-(4-fluorophenyl)-6-(5-(1-(4-fluorophenyl)ethyl)-1,2,4-oxadiazol-3-yl)-1-oxo-1,2-dihydroisoquinolin-3-yl)pentanoic acid] the pKi was 7.90.
`COc1ccc(-n2c(CCCCC(=O)O)cc3cc(C(=O)N[C@H](C)c4ccc(F)cc4)ccc3c2=O)cc1` [Example 3.3, (R)-5-(6-((1-(4-fluorophenyl)ethyl)carbamoyl)-2-(4-methoxyphenyl)-1-oxo-1,2-dihydroisoquinolin-3-yl)pentanoic acid] gave a pKi of 8.09.
Work on `O=C(O)CCCCc1cc2cc(-c3cc(Cc4ccc(F)cc4)on3)ccc2c(=O)n1-c1ccc(F)cc1` [Example 5.1, 5-(6-(5-(4-fluorobenzyl)isoxazol-3-yl)-2-(4-fluorophenyl)-1-oxo-1,2-dihydroisoquinolin-3-yl)pentanoic acid] yielded a pKi of 7.99.
With `O=C(O)CCCCc1cc2cc(-c3noc(-c4ccc(C(F)(F)F)cc4)n3)ccc2c(=O)n1-c1ccc(F)cc1` [Example 7.4, 5-(2-(4-fluorophenyl)-1-oxo-6-(5-(4-(trifluoromethyl)phenyl)-1,2,4-oxadiazol-3-yl)-1,2-dihydroisoquinolin-3-yl)pentanoic acid] the pKi was 7.83.
Work on `C[C@@H]1CN(c2ccc(F)cc2)CCN1C(=O)c1ccc2c(=O)n(-c3ccc(F)cc3)c(CCCCC(=O)NS(=O)(=O)C3CC3)cc2c1` [Example 8.3, (R)-N-(cyclopropylsulfonyl)-5-(2-(4-fluorophenyl)-6-(4-(4-fluorophenyl)-2-methylpiperazine-1-carbonyl)-1-oxo-1,2-dihydroisoquinolin-3-yl)pentanamide] yielded a pKi of 7.77.
`COc1ccccc1-n1c(CCCCC(=O)O)cc2cc(C(=O)N[C@H](C)c3ccc(F)cc3)ccc2c1=O` (single isomer, unassigned) [Example 3.7] gave a pKi of 7.73.
Work on `C[C@@H](NC(=O)c1ccc2c(=O)n(-c3ccc(F)cc3)c(CCCCC(=O)NS(=O)(=O)C3CC3)cc2c1)c1ccc(F)cc1` [Example 8.2, (R)-3-(5-(cyclopropanesulfonamido)-5-oxopentyl)-2-(4-fluorophenyl)-N-(1-(4-fluorophenyl)ethyl)-1-oxo-1,2-dihydroisoquinoline-6-carboxamide] yielded a pKi of 7.83.
